# Laboratory results from patent US11576912B2, “Target genes in MYC-driven neoplasia” (The Board of Trustees of the Leland Stanford Junior …, priority 2017, dated 2023).
# Experiments:
# [1] = test system: EC4 cells; assay: EU labeling and imaging of total RNA distribution (RNA export); type: cell-based, mouse; details: EC4 cells overexpressing MYC, 150 nM KPT-330, 5 h EU labeling, compared with DMSO controls
# Procedure: EU-Labeling and Visualization of Total RNA EC4 cells were labeled with 1 mM 5-ethynyl uridine (EU) for 5h in the presence of 150 nM KPT-330 or vehicle (DMSO control) at 37 degrees and 5% CO2. Cells were then fixed with 4% formaldehyde in PBS at room temperature for 20 minutes, washed consecutively with PBS, 50 mM NH4Cl/PBS, PBS (10 minutes each) and permeabilized with 0.2% TritonX100/PBS. After washing with PBS, EU was labeled with Alexa-647-azide using the Click-IT imaging kit (Invitrogen) following the manufacturer's instructions. Images were acquired on a DMI 6000 B (Leica) epifluorescence microscope. Mean fluorescence intensities in regions of interest in the cytoplasm and in the nucleus omitting nucleoli were determined using ImageJ.
# [2] = IC50 determination, CellTiter-Glo cell viability, low MYC liver cancer cell lines and normal fibroblasts; type: cell-based; details: Homo sapiens; range over normal fibroblast cell line and liver cancer cell lines with low MYC expression, 72 hours
# Procedure: (§1) IC50 Determination Cells were seeded at a density of 1000-2000 cells/well in 96-well plates. Cells were treated with different concentrations of KPT-330 (1:3 dilution from 10 micromolar to 0.33 nanomolar) for 72 hours. MYC expression was shut off by treating the cells with doxycycline (100ng/ml). All experiments were performed in quadruplicates. Cell viability was determined using the CellTiter-Glo Luminescent Cell Viability Assay (Promega). The IC50 was calculated using the Prism software (GraphPad). The log-transformed concentration values and the normalized luminance data were fitted to a four-parameter logistic equation to derive the IC50 value.
# [3] = test system: primary liver tumors in the LAP-tTA/tet-O-MYC mouse model
# Procedure: KPT-330 Treatment In Vivo and Monitoring the Tumor Size
# The KPT-330 (Selleckchem) was dissolved in vehicle (1% Pluronic F-68 and 1% PVP-K29/32, 25 mg/kg) was administered by oral gavage to tumor-bearing mice three times a week for 6 doses total. A 7T MRI for small animals was used to image tumor both before and after treatment. Tumor volume was calculated based on the T2 weighted image stacks using the Osirix software. For short-term treatment, the mice were treated with either vehicle or KPT-330 for three doses and sacrificed the following day after the third dose.
# Western Blot and Immunohistochemical Analysis
# The following antibodies were used for Western blotting and IHC: MYC (9E10 for Western blot and Epitomics 1472-1 for IHC), Tubulin (Sigma), Cleaved caspase 3 and phospho-Histone H3 (Cell Signaling). Immunofluorescence or bright field pictures were taken with 20× objectives on a Leica DMI6000 B microscope and quantified using MetaMorph image analysis software.
# [4] = IC50 determination, CellTiter-Glo cell viability, cell lines with high MYC expression; type: cell-based, human and mouse; details: Mus musculus; range over MYC overexpressing cancer cell lines, 72 hours
# Procedure: as §1
# [5] = test system: EC4 cells; assay: Flow cytometric analysis of apoptosis (7-AAD/Annexin V); type: cell-based, mouse; details: versus DMSO
# Procedure: Flow Cytometric Analysis of Apoptosis For apoptosis staining, cells were stained with 7-AAD and PE-Annexin-V (Becton Dickinson) and analyzed on a FACScan flow cytometer following manufacturer's instructions. FACS data was analyzed with FlowJo software (Tree Star). The apoptotic cell populations were defined by positive staining of both Annexin-V and 7-AAD.
# [6] = short-term treatment, three doses
smiles,measurement,setting,value
O=C(/C=C\n1cnc(-c2cc(C(F)(F)F)cc(C(F)(F)F)c2)n1)NNc1cnccn1 [KPT-330],RNA distribution in the cytoplasm,[1],significantly reduced RNA distribution in the cytoplasm
same,RNA nuclear-cytoplasmic ratio,[1],increased RNA nuclear-cytoplasmic ratio
same,IC50,[2],≥ 300 nM
same,reduction in tumor volume,"[3]; 25 mg/kg oral gavage three times a week, 6 doses, two weeks, MRI before and after",more than 95%
same,histological examination of tumor sections,[3]; H&E staining of tumor sections,only sporadic tumor cells left
same,proliferation or apoptosis in adjacent liver tissues (toxicity to normal hepatocytes),"[3]; mouse, in vivo",minimal toxicity to the normal hepatocytes
same,tumor cell apoptosis by cleaved caspase-3 staining,[3]; [6],significantly induced apoptosis
same,tumor cell proliferation by phospho-histone H3 staining,[3]; [6],completely suppressed the proliferation
same,tumor regression according to MRI scan,"[3]; two mice with smaller tumors, 6 doses, two weeks",complete tumor regression
same,IC50,[4],70 to 300 nM
same,increase in apoptosis,[5]; EC4 cells with MYC OFF (doxycycline),modest increase in apoptosis
same,induction of tumor cell apoptosis,[5]; EC4 cells with MYC overexpression (MYC ON),four-fold induction of tumor cell apoptosis
